The values that follow come from patent US20260274886A1, “CRYSTALLINE FORMS OF A FARNESOID X RECEPTOR AGONIST” (ALFASIGMA S.P.A., priority 2023, published 2026).

Read-outs that look alike come from different tables or passages of the source.

Data set [1] in a line: Dynamic vapour sorption (DVS) analysis. Format: physicochemical. The protocol:
Approximately 10-20 mg of sample is placed into a mesh vapour sorption balance pan and loaded into a DVS Advantage dynamic vapour sorption balance by Surface Measurement Systems. The sample is subjected to a ramping profile from 40-90% relative humidity (RH) at 10% increments, maintaining the sample at each step until a stable weight has been achieved (dm/dt 0.004%, minimum step length 30 minutes, maximum step length 500 minutes) at 25° C. After completion of the sorption cycle, the sample is dried using the same procedure to 0% RH and then a second sorption cycle back to 40% RH. Two cycles are performed. The weight change during the sorption/desorption cycles are plotted, allowing for the hygroscopic nature of the sample to be determined. XRPD analysis is then carried out on any solid retained.
A dynamic vapour sorption analysis of Crystalline Form 1 is in FIG. 4. […] There is a loss of 1.9 wt. % on the first desorption cycle. There is an uptake of 1.1 wt. % (0.3 equivalents water) on the second sorption between 0 and 90% RH, followed by a loss of about 1.25 wt. % on desportion. There is a loss of 1.2 wt. % difference from the input to the end of the experiment. […] Crystalline Form 1 remains as the bulk form.

Data set [2] in a line: Form change on drying under vacuum (XRPD wet vs dry, thermal cycling experiments). Format: physicochemical. The settings on record: dried at ambient temperature under vacuum for 2 h.
Description: Additional solvent is added if necessary. Mixture is thermally cycled between 4° and 5° C. with 0.1° C./min cooling and heating rates and 1 h holds at 40 and 5° C. After 21 h cycling, additional solvent is added if thick slurry is observed and anti-solvent (heptane) is added if clear solution is observed. After a further 26 h thermal cycling, observations are recorded at 5° C. Material is isolated by centrifugation if necessary and analyzed by XRPD. […] XRPD analysis is repeated.
Where [3] appears, read: DVS, 25° C., between 0 and 90% RH.

On to `CC[C@H]1[C@@H](O)[C@@H]2[C@H]([C@@H](O)C[C@]3(C)[C@@H]([C@H](C)CCC(=O)O)CC[C@@H]23)[C@@]2(C)CC[C@@H](O)C[C@@H]12` [Crystalline Form 1, 3α,7α,11β-trihydroxy-6α-ethyl-5β-cholan-24-oic acid], for which, under “7 day stability, 40° C./75% RH”, the “HPLC-CAD Purity (% w/w)” value came out at 97.1 % w/w. For the same compound, for the setting “7 day stability, 80° C.”, the “HPLC-CAD Purity (% w/w)” value worked out at 96.4 % w/w. Where the note is “7 day stability, Ambient Light”, the “HPLC-CAD Purity (% w/w)” value came out at 97.5 % w/w and the XRPD is listed as 1^. For the same compound, the “stability under stressed conditions” value (summary statement referring to DVS and storage data in Example 6) is “stable under stressed conditions”. In data set [1] (setting [3]), the “uptake on the second sorption” value worked out at 1.1 wt. % and the “uptake on the second sorption, equivalents water” value is on record as 0.3 equivalents water. In addition, the “loss on the first desorption cycle” value in data set [1] (DVS, 25° C., first desorption cycle) was 1.9 wt. %. Further, the “mass change on the first sorption cycle” value in data set [1] (DVS, 25° C., first sorption cycle) is “initial mass loss on the first sorption cycle before a slight uptake is observed”. Also, the “loss on desorption after second sorption” value in data set [1] (DVS, 25° C., second desorption) is on record as “about 1.25 wt. %”. In data set [1] (DVS, 25° C., two cycles), the “loss, difference from the input to the end of the experiment” value turned out to be 1.2 wt. %. For the same compound, the “XRPD post-DVS” value in data set [1] (solid retained after DVS) is “slight loss of crystallinity”.
Turning to `CC[C@H]1[C@@H](O)[C@@H]2[C@H]([C@@H](O)C[C@]3(C)[C@@H]([C@H](C)CCC(=O)O)CC[C@@H]23)[C@@]2(C)CC[C@@H](O)C[C@@H]12` [Crystalline Form 2, 3α,7α,11β-trihydroxy-6α-ethyl-5β-cholan-24-oic acid], the form after drying result in data set [2] was “converts to Form 3”.
